Drawing on PubChem BioAssay (NCI), this text covers TGI for 14 compounds.

The structures appear in SMILES notation.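 Where inhibition never reached the appropriate level, the endpoint shown equals the highest concentration tested. Otherwise, values were interpolated linearly from a five-concentration, 48-hour dose response in 96-well plates. TGI: total growth inhibition.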

Assay in all cases: NCI tumour cell line growth inhibition, 48 h
Experiment [1] relates to DU-145 prostate.
Experiment [2] has as its system HCT-116 colon.
Experiment [3] concerns HT29 colon.
In experiment [4] the test system is IGROV1 ovarian.
For experiment [5], the system named is MCF7 breast.
Experiment [6] concerns NCI-H226 lung.
Experiment [7] has as its system OVCAR-3 ovarian.
The subject of experiment [8] is OVCAR-8 ovarian.
Experiment [9] deals with SK-MEL-5 melanoma.
In experiment [10] the test system is SK-OV-3 ovarian.

Consider `Cc1cc(S(=O)(=O)NC(=NCC(=O)NN)NN)c(S)cc1Cl`, for which the TGI in [1], in experiment [2], in experiment [3], in experiment [4], in experiment [5] and in experiment [6] was above 10 µM each time. The TGI in experiment [7], in experiment [8], in experiment [9] and in experiment [10] was above 10 µM throughout.

Take `c1ccc(C/C(=N\Nc2nc3ccccc3o2)c2ccccn2)cc1`: the TGI in [1] came out at 8.38 µM; in experiment [2] it was 3.68 µM; in [3] it was 4.56 µM; in experiment [4], 0.609 µM; in experiment [5], 0.0215 µM; in [6], 0.363 µM. Further, the TGI was 0.0301 µM in experiment [7], 1.42 µM in [8], 0.368 µM in [9] and 0.0726 µM in experiment [10].

Turning to `CN(C)CCNC(=O)c1cccc2c(NC(CS)C(=O)O)c3ccccc3nc12` (configuration not stated), the TGI in [1] was above 100 µM; in [2] it was above 100 µM; in experiment [3], 52.3 µM; in experiment [4] it was 28 µM; in experiment [5] it was 29.5 µM; in experiment [6], 69.2 µM. Besides, the TGI in experiment [7] was above 100 µM; in experiment [8] it was above 100 µM; in experiment [9] it was 20 µM; in experiment [10], 80.7 µM.

On to `CN1C(=O)[C@@]2(C=CC3(CC2)OCCO3)c2ccccc21`, for which the TGI in experiment [1], in experiment [2], in experiment [3], in experiment [4], in [5] and in [6] was above 50 µM each time. Besides, the TGI in experiment [7], in experiment [8], in experiment [9] and in experiment [10] was above 50 µM throughout.

With `OCc1ccccc1OC1OC(CO)C(O)C(O)C1O` (configuration not stated), the TGI in experiment [1], in experiment [2], in experiment [3], in [4], in experiment [5] and in experiment [6] was above 100 µM in each case. Also, the TGI in [7], in [8], in experiment [9] and in [10] was above 100 µM throughout.

For `COc1cc2c(cc1OC)C1Cc3ccccc3CN1CCC2` (configuration not stated), the TGI in [1], in [2], in experiment [3], in [4], in experiment [5] and in experiment [6] was above 100 µM each time. Moreover, the TGI in experiment [7], in experiment [8], in [9] and in experiment [10] was above 100 µM throughout.

With `Cc1nn(C(=O)c2ccccc2O)c2c1C(c1ccc(O)cc1)SC(N)=N2` (configuration not stated), the TGI in [1] was above 10 µM; in experiment [2] it was above 3.32 µM; in experiment [3], above 10 µM; in experiment [4] it was above 7.17 µM; in experiment [5] it was above 10 µM; in [6], above 6.22 µM. The TGI was above 6.89 µM in experiment [7], above 10 µM in experiment [8], above 10 µM in experiment [9] and above 10 µM in experiment [10].

On to `CNC(=O)OCC1=C(COC(=O)NC)CN(c2ccccc2)C1`, for which the TGI in experiment [1], in [2], in experiment [3], in [4], in experiment [5] and in experiment [6] was above 100 µM throughout. The TGI in experiment [7], in experiment [8], in experiment [9] and in [10] was above 100 µM in each case.

`O=C(O)c1ccccc1-c1ccccc1C(=O)c1ccccc1`: the TGI in experiment [1], in [2], in experiment [3], in experiment [4], in experiment [5] and in [6] was above 100 µM in each case. Besides, the TGI in experiment [7], in [8], in [9] and in [10] was above 100 µM throughout.

For `CSc1nc(Br)nc2c1ncn2C1CC(Oc2ccc(C)cc2)C(COc2ccc(C)cc2)O1` (configuration not stated), the TGI in [1], in [2], in [3], in [4], in experiment [5] and in [6] was above 100 µM in each case. Besides, the TGI in experiment [7], in experiment [8], in experiment [9] and in experiment [10] was above 100 µM in each case.

For `C=C(CCC(C(=O)O)C1CCC2(C)C3=C(CCC12C)C1(C)CCC(O)C(C)(C)C1CC3)C(C)C` (configuration not stated), the TGI was above 100 µM in experiment [1]; above 100 µM in experiment [2]; above 100 µM in experiment [3]; 63.1 µM in experiment [4]; above 100 µM in experiment [5]; 96.3 µM in [6]. In addition, the TGI was above 100 µM in experiment [7], 47.2 µM in experiment [8], above 100 µM in experiment [9] and above 100 µM in [10].

Turning to `Cc1cnc2[nH]c(-c3ccccc3)cc(=O)c2c1`, the TGI in [1] is above 100 µM; in [2], above 100 µM; in [3], 0.0732 µM; in experiment [4] it was above 100 µM; in experiment [5], above 100 µM; in experiment [6], 9.69 µM. The TGI in experiment [8] is 0.629 µM; in [9], 21.2 µM; in experiment [10] it was 16.4 µM.

`C=C1c2nc3ccccc3n2C=C(c2ccccc2)N1c1ccc(OC)cc1`: the TGI in experiment [1] is above 100 µM; in [2] it was 59.9 µM; in experiment [4], 35.8 µM; in experiment [5] it was 24.1 µM; in [6] it was 35.6 µM; in [7] it was above 100 µM. For the same compound, the TGI in experiment [8] was 55 µM; in [9] it was 38.2 µM; in experiment [10], above 100 µM.

As to `COc1ccccc1OC/C(N=Cc1ccncc1)=N/NC(=O)c1ccncc1`, the TGI in experiment [1], in [2], in experiment [3], in experiment [4], in experiment [5] and in experiment [6] was above 100 µM each time. Moreover, the TGI in experiment [7], in experiment [8] and in experiment [10] was above 100 µM in each case.
